Results taken from US10316017B2, “COT modulators and methods of use thereof” (Gilead Sciences, Inc., priority 2015, dated 2019).

Legend:
[1] = system: TNFα production in LPS-stimulated human monocytes; experiment: Cot Monocyte TNFα Cell Based Assay; conditions: Homo sapiens, Monocyte, TNFα in LPS-stimulated human monocytes; read-out: EC50 TNF
Procedure, shortened: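 Cells at 5,000/well were pretreated with compound for 1 h at 37 °C (0.5% DMSO final), then stimulated with 50 pg/ml LPS for 4 h at 37 °C. Supernatant TNFα was measured by two-antibody TR-FRET after overnight room-temperature incubation; values are percent of control between unstimulated and stimulated wells.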

[2] = molecular target: T1, human Cot catalytic domain (30-397 amino acids) (Homo sapiens, UniProt P41279); experiment: High Throughput Cot Biochemical Assay (KinEASE TR-FRET); conditions: Cot biochemical HTRF (KinEASE TR-FRET) assay; read-out: IC50 HTRF
T1 construct: Purified recombinant human Cot catalytic domain (30-397 amino acids) was purchased from Cama Biosciences; purchased Cama Biosciences (so in the source)
T1 sequence (P41279 30-397): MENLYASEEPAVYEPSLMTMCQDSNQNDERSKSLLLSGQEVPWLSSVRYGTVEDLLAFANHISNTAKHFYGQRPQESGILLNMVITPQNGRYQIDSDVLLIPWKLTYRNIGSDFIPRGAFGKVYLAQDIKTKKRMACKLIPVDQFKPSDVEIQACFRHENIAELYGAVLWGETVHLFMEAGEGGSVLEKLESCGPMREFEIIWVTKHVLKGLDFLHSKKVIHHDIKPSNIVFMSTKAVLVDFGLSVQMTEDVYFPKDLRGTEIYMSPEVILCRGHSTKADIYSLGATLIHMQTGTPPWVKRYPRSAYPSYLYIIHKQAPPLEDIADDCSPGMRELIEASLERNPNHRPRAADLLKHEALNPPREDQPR
Procedure, shortened: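 Reaction of 5 nM recombinant human Cot catalytic domain (aa 30-397) with 1 μM STK3 peptide (XL665-labeled) and 400 μM ATP in 10 mM MOPS pH 7.0, 10 mM MgOAc, 1 mM DTT, 0.5 mg/mL BSA, 0.1% DMSO. Phosphopeptide detected by TR-FRET with europium anti-phospho antibody.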

Structure (SMILES) | EC50 [1] [nM] | IC50 [2] [nM]
CC(C)(C)N1CCC(n2cc([C@@H](Nc3cc(Cl)c4ncc(C#N)c(Nc5cccc(Br)c5)c4c3)c3ccc(Cl)cc3)nn2)CC1 [Example 757, (S)-4-((3-bromophenyl)amino)-6-(((1-(1-(tert-butyl)piperidin-4-yl)-1H-1,2,3-triazol-4-yl)(4-chlorophenyl)methyl)amino)-8-chloroquinoline-3-carbonitrile] | 738 | 41
CC(C)(C)N1CCC(n2cc([C@@H](Nc3cc(Cl)c4ncc(C#N)c(Nc5ccccc5Cl)c4c3)c3ccc(Cl)cc3)nn2)CC1 [Example 758, (S)-6-(((1-(1-(tert-butyl)piperidin-4-yl)-1H-1,2,3-triazol-4-yl)(4-chlorophenyl)methyl)amino)-8-chloro-4-((2-chlorophenyl)amino)quinoline-3-carbonitrile] | 1310 | 97
CC(C)(C)N1CCC(n2cc([C@@H](Nc3cc(Cl)c4ncc(C#N)c(Nc5ccc(OC(F)(F)F)cc5)c4c3)c3ccc(Cl)cc3)nn2)CC1 [Example 759, (S)-6-(((1-(1-(tert-butyl)piperidin-4-yl)-1H-1,2,3-triazol-4-yl)(4-chlorophenyl)methyl)amino)-8-chloro-4-((4-(trifluoromethoxy)phenyl)amino) quinoline-3-carbonitrile] | 2750 | 2140
CC(C)(C)N1CCC(n2cc([C@@H](Nc3cc(Cl)c4ncc(C#N)c(Nc5cc(F)cc(F)c5)c4c3)c3ccc(Cl)cc3)nn2)CC1 [Example 764, (S)-6-(((1-(1-(tert-butyl)piperidin-4-yl)-1H-1,2,3-triazol-4-yl)(4-chlorophenyl)methyl)amino)-8-chloro-4-((3,5-difluorophenyl)amino)quinoline-3-carbonitrile] | 3270 | 38
CC(C)(C)N1CCC(n2cc([C@@H](Nc3cc(Cl)c4ncc(C#N)c(Nc5ccc(Cl)c(Cl)c5)c4c3)c3ccc(Cl)cc3)nn2)CC1 [Example 765, (S)-6-(((1-(1-(tert-butyl)piperidin-4-yl)-1H-1,2,3-triazol-4-yl)(4-chlorophenyl)methyl)amino)-8-chloro-4-((3,4-dichlorophenyl)amino)quino1ine-3-carbonitrile] | 1290 | 70
CC(C)(C)N1CCC(n2cc([C@@H](Nc3cc(Cl)c4ncc(C#N)c(Nc5ccc(F)cc5)c4c3)c3ccc(Cl)cc3)nn2)CC1 [Example 766, (S)-6-(((1-(1-(tert-butyl)piperidin-4-yl)-1H-1,2,3-triazol-4-yl)(4-chlorophenyl)methyl)amino)-8-chloro-4-((4-fluorophenyl)amino)quinoline-3-carbonitrile] | 1770 | 41
CC(C)(C)N1CCC(n2cc([C@@H](Nc3cc(Cl)c4ncc(C#N)c(Nc5cccc(F)c5)c4c3)c3ccc(Cl)cc3)nn2)CC1 [Example 767, (S)-6-(((1-(1-(tert-butyl)piperidin-4-yl)-1H-1,2,3-triazol-4-yl)(4-chlorophenyl)methyl)amino)-8-chloro-4-((3-fluorophenyl)amino)quinoline-3-carbonitrile] | 1270 | 48
CC(C)(C)N1CCC(n2cc([C@@H](Nc3cc(Cl)c4ncc(C#N)c(Nc5ccccc5F)c4c3)c3ccc(Cl)cc3)nn2)CC1 [Example 768, (S)-6-(((1-(1-(tert-butyl)piperidin-4-yl)-1H-1,2,3-triazol-4-yl)(4-chlorophenyl)methyl)amino)-8-chloro-4-((2-fluorophenyl)amino)quinoline-3-carbonitrile] | 2500 | 83
CCN1CC2(CC(n3cc([C@@H](Nc4cc(Cl)c5ncc(C#N)c(Nc6ccc(F)c(Cl)c6)c5c4)c4ccccc4)nn3)C2)C1 [Example 774] | 127 | 3
CC(C)(C)N1CCC(n2cc([C@@H](Nc3cc(Cl)c4ncc(C#N)c(Nc5ccccc5)c4c3)c3ccc(Cl)cc3)nn2)CC1 [Example 777, (S)-6-(((1-(1-(tert-butyl)piperidin-4-yl)-1H-1,2,3-triazol-4-yl)(4-chlorophenyl)methyl)amino)-8-chloro-4-(phenylamino)quinoline-3-carbonitrile] | 6970 | 72
N#Cc1cnc2c(Cl)cc(N[C@@H](c3ccccc3)c3cn(C4CCNCC4)nn3)cc2c1Nc1ccc(F)c(Cl)c1 [Example 778, (S)-8-chloro-4-((3-chloro-4-fluorophenyl)amino)-6-((phenyl (1-(piperidin-4-yl)-1H-1,2,3-triazol-4-yl)methyl)amino) quinoline-3-carbonitrile] | 305 | 2
CCN1CCC(n2cc([C@@H](Nc3ccc4ncc(C#N)c(Nc5ccc(F)c(Cl)c5)c4c3)c3ccccc3)nn2)CC1 [Example 779, (S)-4-((3-chloro-4-fluorophenyl)amino)-6-(((1-(1 ethylpiperidin-4-yl)-1H-1,2,3-triazol-4-yl)(phenyl)methyl)amino)quinoline-3-carbonitrile] | 196 | 4
CC(C)(C)N1CCC(n2cc([C@@H](Nc3cc(Cl)c4ncc(C#N)c(Nc5cncc(Cl)c5)c4c3)c3ccccc3)nn2)CC1 [Example 780, (S)-6-(((1-(1-(tert-butyl)piperidin-4-yl)-1H-1,2,3-triazol-4-yl)(phenyl)methyl)amino)-8-chloro-4-((5-chloropyridin-3-yl)amino)quinoline-3-carbonitrile] | 865 | 20
CC(C)(C)N1CCC(n2cc([C@@H](Nc3cc(Cl)c4ncc(C#N)c(Nc5ccc(Cl)c(Cl)c5F)c4c3)c3ccccc3)nn2)CC1 [Example 781, (S)-6-(((1-(1-(tert-butyl)piperidin-4-yl)-1H-1,2,3-triazol-4-yl)(phenyl)methyl)amino)-8-chloro-4-((3,4-dichloro-2-fluorophenyl)amino)quinoline-3-carbonitrile] | 597 | 11
N#Cc1cnc2c(Cl)cc(NC(c3ccc(F)cc3)c3csnn3)cc2c1Nc1ccc(F)c(Cl)c1 (stereo not shown) [Example 784, 8-chloro-4-((3-chloro-4-fluorophenyl)amino)-6-(((4-fluorophenyl)(1,2,3-thiadiazol-4-yl)methyl)amino)quinoline-3-carbonitrile] | 1990 | 249
CC(C)(C)N1CCC(n2cc([C@@H](Nc3cc(Cl)c4ncc(C#N)c(Nc5ccc(OCc6ccccn6)c(Cl)c5)c4c3)c3ccccc3)nn2)CC1 [Example 786, (S)-6-(((1-(1-(tert-butyl)piperidin-4-yl)-1H-1,2,3-triazol-4-yl)(phenyl)methyl)amino)-8-chloro-4-((3-chloro-4-(pyridin-2-ylmethoxy)phenyl)amino)quinoline-3-carbonitrile] | 6630 | 173
CC(C)(C)N1CCC(n2cc([C@@H](Nc3cc(Cl)c4ncc(C#N)c(Nc5ccc(F)c(F)c5)c4c3)c3ccccc3)nn2)CC1 [Example 787, (S)-6-(((1-(1-(tert-butyl)piperidin-4-yl)-1H-1,2,3-triazol-4-yl)(phenyl)methyl)amino)-8-chloro-4-((3,4-difluorophenyl)amino)quinoline-3-carbonitrile] | 362 | 11
CC1(C)CC(n2cc([C@@H](Nc3cc(Cl)c4ncc(C#N)c(Nc5ccc(F)c(Cl)c5)c4c3)c3ccccc3)nn2)CCN1 (stereo partly drawn) [Example 790, 8-chloro-4-((3-chloro-4-fluorophenyl)amino)-6-(((1S)-(1-(2,2-dimethylpiperidin-4-yl)-1H-1,2,3-triazo1-4-yl)(phenyl)methyl)amino) quinoline-3-carbonitrile] | 305 | 4
CCN1CCC(n2cc([C@@H](Nc3cc(F)c4ncc(C#N)c(Nc5ccc(F)c(Cl)c5)c4c3)c3ccccc3)nn2)CC1 [Example 791, (S)-4-((3-chloro-4-fluorophenyl)amino)-6-(((1-(1-ethylpiperidin-4-yl)-1H-1,2,3-triazol-4-yl)(phenyl)methyl)amino)-8-fluoroquinoline-3-carbonitrile] | 50 | 3
CCN1CCC(n2cc([C@H](c3ccccc3)N(CC)c3cc(Cl)c4ncc(C#N)c(Nc5ccc(F)c(Cl)c5)c4c3)nn2)CC1 [Example 792, (S)-8-chloro-4-((3-chloro-4-fluorophenyl)amino)-6-(ethyl((1-(1-ethylpiperidin-4-yl)-1H-1,2,3-triazol-4-yl)(phenyl)methyl)amino) quinoline-3-carbonitrile] | 91 | 5
CN(C)CCn1cc([C@@H](Nc2cc(Cl)c3ncc(C#N)c(Nc4ccc(F)c(Cl)c4)c3c2)c2ccccc2)nn1 [Example 793, (S)-8-chloro-4-((3-chloro-4-fluorophenyl)amino)-6-(((1-(2-(dimethylamino)ethyl)-1H-1,2,3-triazol-4-yl)(phenyl)methyl)amino) quinoline-3-carbonitrile] | 209 | 7
N#Cc1cnc2c(F)cc(N[C@@H](c3ccccc3)c3cn(C4CCNCC4)nn3)cc2c1Nc1ccc(F)c(Cl)c1 [Example 794, (S)-4-((3-chloro-4-fluorophenyl)amino)-8-fluoro-6-((phenyl(1-(piperidin-4-yl)-1H-1,2,3-triazol-4-yl)methyl)amino)quinoline-3-carbonitrile] | 441 | 4
COCCn1cc([C@@H](Nc2cc(Cl)c3ncc(C#N)c(Nc4ccc(F)c(Cl)c4)c3c2)c2ccccc2)nn1 [Example 795, (S)-8-chloro-4-((3-chloro-4-fluorophenyl)amino)-6-(((1-(2-methoxyethyl)-1H-1,2,3-triazol-4-yl)(phenyl)methyl)amino)quinoline-3-carbonitrile] | 314 | 13
